From article PMC9000610, “Computational Analysis and Biological Activities of Oxyresveratrol Analogues, the Putative Cyclooxygenase-2 Inhibitors” (Molecules, 2022) come the findings set out here.

A value given as a limit tells only on which side of the number the result lay.

The nature of one data set: in vitro. It counts as cell-based, human. Conditions: human. As for the experimental part: (§1) The effect of oxyresveratrol and its derivatives on the viability of normal human fibroblasts (MRC-5 cells) were determined by MTT assay. MRC-5 cells were diluted to 2 × 10^5 cells/mL with a complete medium. The cells (100 µL) were seeded in the wells of the sterile 96-well cell culture plate. After incubation at 37 °C in CO2 for 24 h, the cells were treated with different concentrations of sample compounds (100 µL) and doxorubicin as a positive control (100 µL). After incubation for 48 h, MTT solution (20 µL of 5 mg/mL) was added to each well and incubated for 3 h. After that, the complete medium was removed. Then, the cells were lysed with DMSO (100 µL). The yellow MTT dye was reduced by succinic dehydrogenase in the mitochondria of viable cells to purple formazan crystals. After that, absorbance (OD) was measured by a microplate reader at 570 nm. The percentage of cytotoxicity was determined with Equation (1) below. (1) Cell viability(%)=OD of treated cells/OD of control cells×100^

A further data set concerns the target T1, human COX-2 (Homo sapiens, UniProt P35354).
T1 construct: purchased Cayman Chemicals USA Item no; 701080
T1 sequence (P35354 18-604): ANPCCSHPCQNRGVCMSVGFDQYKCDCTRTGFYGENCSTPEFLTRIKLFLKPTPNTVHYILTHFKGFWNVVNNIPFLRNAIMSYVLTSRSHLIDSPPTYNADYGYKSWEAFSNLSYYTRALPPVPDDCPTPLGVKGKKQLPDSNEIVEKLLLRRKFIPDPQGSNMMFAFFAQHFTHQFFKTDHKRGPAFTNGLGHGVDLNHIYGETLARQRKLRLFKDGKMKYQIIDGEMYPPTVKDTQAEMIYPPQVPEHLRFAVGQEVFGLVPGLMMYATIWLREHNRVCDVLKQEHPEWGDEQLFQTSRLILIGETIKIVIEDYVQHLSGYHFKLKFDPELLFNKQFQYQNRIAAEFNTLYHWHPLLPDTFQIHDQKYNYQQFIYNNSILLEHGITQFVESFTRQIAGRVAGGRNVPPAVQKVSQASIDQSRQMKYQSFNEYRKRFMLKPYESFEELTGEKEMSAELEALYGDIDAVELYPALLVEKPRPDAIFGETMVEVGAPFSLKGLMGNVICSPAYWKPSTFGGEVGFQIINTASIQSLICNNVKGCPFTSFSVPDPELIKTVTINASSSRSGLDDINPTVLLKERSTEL
The experiment in a line: Human COX-2 inhibitor screening assay kit (Cayman). It counts as biochemical. Conditions: mean ± standard deviation of three replicates; read-out: COX-2 Inhibition IC50. On the procedure:
COX-2 enzyme and tested compounds at various concentrations were prepared in the reaction buffer (0.1 M Tris-HCl, pH 8.0, containing 5 mM EDTA and 2 mM phenol) containing heme. […] The quenched reactions were incubated at room temperature for 5 min to produce prostaglandin F2α. Dilutions were made with the ELISA buffer and measured by using a PGE2 ELISA kit according to the manufacturer’s instruction.

A further data set has as its system MRC-5 cells. Nature of the data set: in vitro. Format: cell-based, human. On the procedure: as §1

Usually CC50 stands for the concentration giving 50% cytotoxicity. As for `CC(=O)Oc1cc(OC(C)=O)cc(C(F)C(F)c2ccc(OC(C)=O)cc2OC(C)=O)c1` (stereo not drawn) [Compound 9], the CC50 at 48 h in the data set “in vitro” worked out at 11.7 ± 1.35 µM.
What is called IC50 is the concentration that inhibits the measured activity by half. One may read the melting point as the temperature, or range, at which the solid turns liquid. Consider `CC(=O)Oc1cc(CCc2ccc(OC(C)=O)cc2OC(C)=O)cc(OC(C)=O)c1` [Compound 6, 2,3′,4,5′-tetraacetoxybibenzyl], for which the melting point was 72.3 to 73.3 °C. Besides, at human COX-2, the IC50 was 19 ± 2.01 µM. For the same compound, half-maximal cytotoxicity in the data set “in vitro” (CC50 at 48 h) was put at 121 ± 2.37 µM.
In “in vitro”, `COc1cccc2c1C(=O)c1c(O)c3c(c(O)c1C2=O)C[C@@](O)(C(=O)CO)C[C@@H]3O[C@H]1C[C@H](N)[C@H](O)[C@H](C)O1` [doxorubicin, reference compound] gave a CC50 at 48 h of more than 100 µM.
Still for that read-out and setting: the figure for `COc1cc(OC)cc(C(F)C(OC)c2ccc(OC)cc2OC)c1` (stereo not drawn) [Compound 8] is 53.04 ± 0.22 µM.
Compound `COc1cc(CCc2ccc(OC)cc2OC)cc(OC)c1` [Compound 5, 2,3′,4,5′-tetramethoxybibenzyl] displayed a melting point of 44.7 to 46.8 °C. Moreover, at human COX-2, the IC50 was 18.1 ± 2.07 µM. This compound also had a CC50 at 48 h in “in vitro” of 130 ± 3.04 µM.
Take `CC(=O)Oc1cc(C=Cc2ccc(OC(C)=O)cc2OC(C)=O)cc(OC(C)=O)c1` [Compound 3, 2,3′,4,5′-tetraacetoxystilbene]: at human COX-2, the IC50 worked out at 23 ± 2.02 µM. Besides, the cytotoxic concentration (CC50) at 48 h in “in vitro” was determined as 77.7 ± 3.07 µM.
Take `Oc1cc(O)cc(CCc2ccc(O)cc2O)c1` [Compound 4, 2,3′,4,5′-tetrahydroxybibenzyl]: at human COX-2, the IC50 came to 11.5 ± 1.54 µM. Also, in the data set with MRC-5 cells, the “cytotoxicity to normal cell lines (in words)” value is on record as “very low cytotoxicity”. Moreover, half-maximal cytotoxicity in “in vitro” (CC50 at 48 h) was put at 106 ± 3.86 µM.
On to `COc1cc(C=Cc2ccc(OC)cc2OC)cc(OC)c1` [Compound 2, 2,3′,4,5′-tetramethoxystilbene], for which the IC50 on human COX-2 amounted to 25 ± 2.34 µM. Also, it took 118 ± 2.69 µM to reach half-maximal cytotoxicity in “in vitro” (CC50 at 48 h).
Take `Oc1cc(O)cc(/C=C/c2ccc(O)cc2O)c1` [Compound 1, trans-2,3′,4,5′-tetrahydroxystilbene]: the IC50 on human COX-2 was 14.5 ± 2.04 µM. Half-maximal cytotoxicity in “in vitro” (CC50 at 48 h) was put at 57.5 ± 2.34 µM.
